# pEC50: −log10 of the molar value. Entries after “also recorded” stand apart in the source; their conditions may differ.
# What was measured:
# MYCN [1] = assay: MYCN protein by western blot in SK-N-BE(2) cells; type: cell-based; conditions: for efficacy against MYCN (loss of MYCN protein), in words: 24 hrs, 1 μM of compound (FIG. 3)
# Procedure: (§1) Neuroblastoma tumor cell lines were obtained from the University of California San Francisco Cell Culture Facility (Kelly, SK-N-BE2, and SH-EP). SMS-KCN, SHEP MYCN^wt and MYCN^T58A/S62A cells were obtained. All cells were grown in RPMI with 10% FBS. Neuroblastoma cells were harvested and lysed with Cell Signaling Lysis buffer+1% SDS, sonicated and supernatants boiled in LDS sample buffer (Invitrogen). Western blots were performed as described previously (Chanthery et al., 2012), with primary antibodies to MYCN (ab24193, Abcam), Histone H3, P-Histone H3 (S10), Aurora A (Cell signaling), and GAPDH (Millipore). Western blot quantitation performed with ImageJ software.
# Aurora A = target: T1, Aurora A (Homo sapiens, UniProt O14965, T287D); assay: In vitro kinase assay for Aurora A (32P ATP); type: biochemical
# T1 construct: Aurora A (residues 123-390, T287D) was cloned into a pET28a plasmid; hexahistidine (PreScission Protease-cleavable) (cleaved yes); made in house; host or cells: E. coli BL-21(DE3)
# T1 sequence (O14965 123-390 T287D): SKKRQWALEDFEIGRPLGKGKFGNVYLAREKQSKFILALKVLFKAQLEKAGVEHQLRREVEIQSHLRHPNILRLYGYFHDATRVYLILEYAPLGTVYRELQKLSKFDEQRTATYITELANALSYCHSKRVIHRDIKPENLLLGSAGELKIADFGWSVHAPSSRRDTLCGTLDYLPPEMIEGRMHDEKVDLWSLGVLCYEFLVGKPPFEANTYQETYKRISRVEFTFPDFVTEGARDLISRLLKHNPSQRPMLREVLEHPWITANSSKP
# Procedure: Kinase assays for Aurora A were performed in 10 mM HEPES pH 7.5, 10 mM MgCl2, 0.01% Triton, 4% v/v DMSO, 5 nM kinase, and either 4 μM histone H3 or 30 μM synthetic peptide [sequence] (Elim Biopharmaceuticals, Inc). Drug concentration ranged from 2000-5 nM. Reactions were preincubated with inhibitor for ten minutes before initiation by addition of 100 μM nonradioactive ATP supplemented with ^32P ATP (1 mCi in 200 μL, Perkin-Elmer, 0.8 ρCi per reaction). Reactions were quenched at 10 min by spotting 3 μL quantity onto P81 phosphocellulose (Whatman), which were washed 5×5′ in 0.1% phosphoric acid and dried. Radioactivity was measured by phosphorimaging and recorded on a Typhoon fluorescence imager (Molecular Dynamics).
# p-Histone H3 = p-Histone H3 by immunoblot in compound-treated cells (structure-activity); type: cell-based
# Procedure: as §1
# MYCN [2] = assay: MYCN levels in JM134- vs NHC532-treated cells (FIG. 10); type: cell-based
# [3] = system: MYCN amplified neuroblastoma cells; assay: Cell cycle by flow cytometry; type: cell-based
# Procedure: (§2) Neuroblastoma cells were treated for the indicated time, trypsinized, washed, stained with Dylight 800 at 0.3 μg/mL (Pierce, 46421), fixed with 1.5% PFA, and permeabilized with 100% methanol. Cells were then stained with antibodies against p-MPM2 (Millipore, 16-155), p-pan-Aurora (Cell Signaling, 2914), MYCN (Thermo, PA5-17403), rabbit IgG (Invitrogen, A10542), or mouse IgG (BioLegend, 405307). Cells were stained with DAPI at 0.3 μg/mL (Invitrogen, D21490) and analyzed on the BD LSR II flow cytometer. For cell cycle analysis, cells were stimulated with EdU for 2 hours prior to harvest, then probed using the Click-iT EdU Flow Cytometry Assay Kit (Invitrogen, C10424). Cells were stained with propidium iodide (BD, 556547) and analyzed on the BD FACSCalibur flow cytometer. Data was gated using Cytobank. For viability studies, neuroblastoma cells were plated in 96-well plates at a density of 1,000 cells/well for SHEP or 4,000 cells/well for Kelly or SK—N-BE2 cells, then incubated with indicated concentrations of drug for 72 hours at 37° C. Plates were frozen at −80° C. to induce cell lysis. CyQUANT reagent mixture (Invitrogen, C7026) was added to thawed plates, then fluorescence was measured. Alternatively, resazurin (Sigma-Aldrich, R7017) was added directly to wells following drug treatment then incubated for 4 hours at 37° C. prior to measuring fluorescence. Data was analyzed using GraphPad Prism software.
# tumor-derived cell lines = assay: Screen of panel of tumor-derived, genetically characterized cell lines; type: cell-based; conditions: Wilcoxon Rank Sum test
# MYCN [4] = assay: Screen of Kelly MYCN-amplified cells, western blot for MYCN; type: cell-based; conditions: 1 μM, 24 hrs
# Procedure: as §1
# (§3) To test whether this panel of 32 putative conformation-disrupting Aurora A inhibitors would destabilize MYCN, initially Kelly MYCN-amplified neuroblastoma cells were treated with candidate inhibitors and MYCN protein was measured by western blot. Phosphorylation of Histone H3, a known substrate for Aurora A and B and a marker for mitosis, was also assessed. FIGS. 1B and 5 show decreased levels of both MYCN protein and p-Histone H3 in response to several members of the screening panel (quantitated in FIG. 1).
# P-Histone H3 (S10) = assay: Dose response immunoblot for phosphorylation of Histone H3 (S10) in MYCN-amplified neuroblastoma cell lines; type: cell-based; conditions: FIGS. 1D and 7
# Procedure: as §1
# phospho-pan-Aurora = assay: Phospho-pan-Aurora by flow cytometry; type: cell-based; conditions: 1 μM, 6 hrs (FIG. 6C)
# Procedure: as §2
# phospho-histone H3 = assay: Screen of Kelly MYCN-amplified cells, western blot for phospho-histone H3; type: cell-based; conditions: 1 μM, 24 hrs
# Procedure: as §1, §3
# [5] = delivered at the same dose (20 mg/kg); cited from earlier work
# MYCN-Aurora A complex = target: T2, MYCN-Aurora A complex (Homo sapiens, UniProt O14965); assay: Pulldown of MYCN and immunoblot for Aurora A; type: cell-based; conditions: MYCN-amplified IMR32 cells, 4 hrs MG-132, 2 hrs drug, increasing concentrations
# T2 construct: Representative immunoprecipitation of MYCN and immunoblots from MYCN-amplified IMR32 cells; endogenous in cells
# [6] = system: Kelly MYCN-amplified neuroblastoma cells; assay: Viability at 72 hrs, CyQUANT assay; type: cell-based; conditions: FIG. 1F, read-out: cellular EC50 at 72 hrs
# Procedure: as §2, with “Plates were frozen at −80° C. to induce cell lysis.” left out
# Aurora A protein = target: T3, Aurora A protein (Homo sapiens, UniProt O14965); assay: Dose response immunoblot for Aurora A protein in MYCN-amplified neuroblastoma cell lines; type: cell-based; conditions: across cell lines (FIGS. 1D and 7)
# T3 construct: endogenous in cells; host or cells: SK-N-BE(2), SMS-KCN, Kelly neuroblastoma cells
# Procedure: Neuroblastoma tumor cell lines were obtained from the University of California San Francisco Cell Culture Facility (Kelly, SK-N-BE2, and SH-EP). SMS-KCN, SHEP MYCN^wt and MYCN^T58A/S62A cells were obtained. All cells were grown in RPMI with 10% FBS. Neuroblastoma cells were harvested and lysed with Cell Signaling Lysis buffer+1% SDS, sonicated and supernatants boiled in LDS sample buffer (Invitrogen). […] Western blot quantitation performed with ImageJ software.
# MYCN [7] = assay: Dose response immunoblot for MYCN in MYCN-amplified neuroblastoma cell lines (SK-N-BE(2), SMS-KCN, Kelly); type: cell-based; conditions: multiple cell lines, 24 hrs (FIGS. 1D and 7)
# Procedure: as §1
# MYCN [8] = assay: MYCN protein by immunoblot in SHEP cells expressing MYCN; type: cell-based; conditions: SHEP cells expressing MYCNWT, 24 hrs, increasing concentrations (FIG. 12C)
# Procedure: as §1
# MYCN is believed to be sequentially phosphorylated at S62/T58 before it is targeted for degradation by ubiquitination, and only phosphorylated, ubiquitinated MYCN is protected from degradation by Aurora A (Gustafson and Weiss, 2010; Otto et al., 2009).
# T2 sequence (O14965 whole entry, one chain of several): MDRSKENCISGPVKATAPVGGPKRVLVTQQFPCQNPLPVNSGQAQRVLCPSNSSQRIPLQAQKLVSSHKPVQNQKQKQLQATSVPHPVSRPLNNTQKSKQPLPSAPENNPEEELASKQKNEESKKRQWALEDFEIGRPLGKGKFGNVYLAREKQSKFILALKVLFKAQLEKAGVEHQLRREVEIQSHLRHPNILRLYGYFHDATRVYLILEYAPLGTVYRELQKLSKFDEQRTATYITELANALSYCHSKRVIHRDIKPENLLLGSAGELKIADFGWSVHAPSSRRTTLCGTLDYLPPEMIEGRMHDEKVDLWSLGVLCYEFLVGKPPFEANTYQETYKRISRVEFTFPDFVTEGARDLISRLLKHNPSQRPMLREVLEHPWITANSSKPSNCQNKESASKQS
# T3 sequence (O14965 whole entry): as the sequence (O14965 whole entry, one chain of several) above
compound,measurement,setting,value
"Cc1cc(Nc2cc(C3CCCC3)[nH]n2)nc(Nc2ccc(NC(=O)Nc3cccc(C(F)(F)F)c3)cc2)n1 [CD15, 1-(4-((4-((5-cyclopentyl-1H-pyrazol-3-yl)amino)-6-methylpyrimidin-2-yl)amino)phenyl)-3-(3-(trifluoromethyl)phenyl)urea]","efficacy against MYCN (loss of MYCN protein), in words",MYCN [1],maintained both cell-free potency and efficacy against MYCN
same,"potency against Aurora A (biochemical, cell-free), in words",Aurora A,maintained both cell-free potency and efficacy against MYCN
"Cc1cc(Nc2cc(C3CCCCC3)[nH]n2)nc(Nc2ccc(NC(=O)Nc3cccc(C(F)(F)F)c3)cc2)n1 [CD22, 3-[4-({4-[(5-cyclohexyl-1H-pyrazol-3-yl)amino]-6-methylpyrimidin-2-yl}amino)phenyl]-1-[3-(trifluoromethyl)phenyl]urea]","efficacy against MYCN (loss of MYCN protein), in words",MYCN [1],lost both potency against Aurora A and efficacy against MYCN
same,"potency against Aurora A (biochemical, cell-free), in words",Aurora A,lost both potency against Aurora A and efficacy against MYCN
"Cc1cc(Nc2cc(C3CCCCC3)[nH]n2)nc(Nc2ccc(NC(=O)Nc3ccccc3)cc2)n1 [CD24, 3-[4-({4-[(5-cyclohexyl-1H-pyrazol-3-yl)amino]-6-methylpyrimidin-2-yl}amino)phenyl]-1-phenylurea]","efficacy against MYCN (loss of MYCN protein), in words",MYCN [1],lost both potency against Aurora A and efficacy against MYCN
same,"potency against Aurora A (biochemical, cell-free), in words",Aurora A,lost both potency against Aurora A and efficacy against MYCN
"O=C(Nc1ccccc1)Nc1ccc(Nc2nccc(Nc3cc(C4CCCC4)[nH]n3)n2)cc1 [CD25, 3-[4-({4-[(5-cyclopentyl-1H-pyrazol-3-yl)amino]pyrimidin-2-yl}amino)phenyl]-1-phenylurea]","efficacy against MYCN (loss of MYCN protein), in words",MYCN [1],less effective than CD532 in driving MYCN loss
same,Histone H3 phosphorylation,"p-Histone H3; SK-N-BE(2) cells, 24 hrs, 1 μM (FIG. 3D)",loss of Histone H3 phosphorylation
same,"potency against Aurora A (biochemical, cell-free), in words",Aurora A,retained potency against Aurora Kinase A activity
"O=C(Nc1ccc(Nc2nccc(Nc3cc(-c4ccco4)[nH]n3)n2)cc1)Nc1cccc(C(F)(F)F)c1 [JM134, 1-(4-((4-((5-(furan-2-yl)-1H-pyrazol-3-yl)amino)pyrimidin-2-yl)amino)phenyl)-3-(3-(trifluoromethyl)phenyl)urea]",MYCN levels compared to NHC532 (CD532),MYCN [2],still decreases MYCN levels (though not as completely)
same,level of p-Histone H3 compared to NHC532-treated cells,p-Histone H3; FIG. 10,higher level of p-Histone H3
same,increase in biochemical IC50 against Aurora A compared to NHC532 (CD532),Aurora A,5 fold
same,"potency against Aurora A (biochemical, cell-free), in words",Aurora A,decreased binding affinity to Aurora A
"Cc1sc2c(c1C)C(c1ccc(Cl)cc1)=N[C@@H](CC(=O)OC(C)(C)C)c1nnc(C)n1-2 [JQ1, reference compound]",cell cycle effect,[3]; 24 hrs of treatment,blockade of S-phase entry and accumulation of cells in G0/G1
same,susceptibility of MYCN amplified vs non-amplified cell lines,tumor-derived cell lines,significantly more susceptible to JQ1 than non-amplified lines
COc1cc(Nc2ncc3c(n2)-c2ccc(Cl)cc2C(c2c(F)cccc2OC)=NC3)ccc1C(=O)O [MLN8237],MYCN protein level,MYCN [4],much more modest effects on levels of MYCN protein
same,"phosphorylation of Histone H3 at S10, dose response",P-Histone H3 (S10),"initial increase in S10 phosphorylation at lower concentrations, followed by a sharp drop at higher concentrations"
same,phospho-pan-Aurora,phospho-pan-Aurora,loss of phospho-pan-Aurora
same,p-Histone H3 level,phospho-histone H3,blocked Histone H3 phosphorylation at 1 μM
same,AUC0-24,[5],78.4 µM·h
same,MYCN-Aurora A interaction,MYCN-Aurora A complex,partial loss of interaction; also recorded: only modestly disrupted this interaction
same,pEC50,[6],7.47
same,cell cycle effect,[3]; 4 or 6 hrs of treatment,G2/M arrest
same,time dependence of MYCN protein loss,"MYCN [1]; 1 μM, time course (FIG. 12A)","similarly rapid, but much more modest decrease in levels of MYCN protein that does not change over time"
same,Aurora A protein level,Aurora A protein,upregulated or had little effect on Aurora A protein
same,"MYCN protein, dose response",MYCN [7],little or no response to high concentrations; also recorded: little loss of MYCN protein even at doses 100 to 1000 times greater than their IC50 values for Aurora A
Cc1cc(Nc2cc(N3CCN(C)CC3)nc(Sc3ccc(NC(=O)C4CC4)cc3)n2)n[nH]1 [VX-680],MYCN protein level,MYCN [4],much more modest effects on levels of MYCN protein
same,"phosphorylation of Histone H3 at S10, dose response",P-Histone H3 (S10),abrogates phosphorylation of Histone H3 at S10
same,phospho-pan-Aurora,phospho-pan-Aurora,loss of phospho-pan-Aurora
same,p-Histone H3 level,phospho-histone H3,blocked Histone H3 phosphorylation at 1 μM
same,wild-type MYCN protein,MYCN [8],little effect on MYCN protein levels
same,cell cycle effect,[3]; 4 or 6 hrs of treatment,G2/M arrest
same,"MYCN protein, dose response",MYCN [7],little loss of MYCN protein even at doses 100 to 1000 times greater than their IC50 values for Aurora A

# — patent publication US12551482B2, “Aurora kinase inhibitors” (The Regents of the University of California, priority 2013, dated 2026)
